Activity calls are given as the source filed them. The calls are words filed in the database; no cut-off is given here.
How the values were obtained:
HCT-116 [1] = assay: Induction of apoptosis in human HCT-116 cells assessed as increase in intracellular ROS level incubated for 48 hrs by DCFH-DA staining based fluorescence microscopy; type: functional, cell-based
A549 = assay: Growth inhibition of human A549 cells incubated for 48 hrs by MTT reagent based ELISA reader analysis; type: functional, cell-based; settings: A549, 48 h
HeLa = assay: Growth inhibition of human HeLa cells incubated for 48 hrs by MTT reagent based ELISA reader analysis; type: functional, cell-based
HCT-116 [2] = assay: Inhibition of cell migration in human HCT-116 cells assessed as intercellular distance at 5 nM by inverted phase-contrast microscopic analysis (reference value: 2.5 +/- 0.7 millimeter); type: functional
HCT-116 [3] = assay: Inhibition of cell migration in human HCT-116 cells assessed as intercellular distance at 5 nM incubated for 24 hrs by inverted phase-contrast microscopic analysis (reference value: 1 +/- 0.2 millimeter); type: functional
PDX14244 = assay: Antitumor activity against human PDX14244 cells xenografted in SCID mouse model assessed as reduction in tumor volume at 2 mg/kg,po administrated once per week for 3 weeks; type: functional, organism-based
HCT-116 [4] = assay: Induction of apoptosis in human HCT-116 cells assessed as upregulation of DDX5 mRNA expression at 50 nM incubated for 24 hrs by RNA analysis; type: functional, cell-based
HCT-116 [5] = assay: Induction of apoptosis in human HCT-116 cells assessed as modulation of TOP1 mRNA expression at 10 to 500 nM incubated for 6 to 48 hrs by RNA analysis; type: functional, cell-based; settings: dose 10-500 nM, time 6-48 hrs
HCT-116 [6] = assay: Induction of apoptosis in human HCT-116 cells assessed as modulation of TOP2A mRNA expression at 10 to 500 nM incubated for 6 to 48 hrs by RNA analysis; type: functional, cell-based; settings: dose 10-500 nM, time 6-48 hrs
HCT-116 [7] = assay: Induction of apoptosis in human HCT-116 cells assessed as modulation of TOP3A mRNA expression at 10 to 500 nM incubated for 6 to 48 hrs by RNA analysis; type: functional, cell-based; settings: dose 10-500 nM, time 6-48 hrs
HCT-116 [8] = assay: Induction of apoptosis in human HCT-116 cells assessed as modulation of DDX6 mRNA expression at 10 to 500 nM incubated for 6 to 48 hrs by RNA analysis; type: functional, cell-based; settings: dose 10-500 nM, time 6-48 hrs
HCT-116 [9] = assay: Induction of apoptosis in human HCT-116 cells assessed as modulation of DDX19B mRNA expression at 10 to 500 nM incubated for 6 to 48 hrs by RNA analysis; type: functional, cell-based; settings: dose 10-500 nM, time 6-48 hrs
HCT-116 [10] = assay: Induction of apoptosis in human HCT-116 cells assessed as modulation of DDX49 mRNA expression at 10 to 500 nM incubated for 6 to 48 hrs by RNA analysis; type: functional, cell-based; settings: dose 10-500 nM, time 6-48 hrs
HCT-116 [11] = assay: Induction of apoptosis in human HCT-116 cells assessed as modulation of DDX55 mRNA expression at 10 to 500 nM incubated for 6 to 48 hrs by RNA analysis; type: functional, cell-based; settings: dose 10-500 nM, time 6-48 hrs
HCT-116 [12] = assay: Induction of apoptosis in human HCT-116 cells assessed as upregulation of BIK mRNA expression at 10 to 500 nM incubated for 6 to 48 hrs by RNA analysis; type: functional, cell-based; settings: dose 10-500 nM, time 6-48 hrs
HCT-116 [13] = assay: Induction of apoptosis in human HCT-116 cells assessed as downregulation of BCL2 mRNA expression at 10 to 500 nM incubated for 6 to 48 hrs by RNA analysis; type: functional, cell-based; settings: dose 10-500 nM, time 6-48 hrs
HCT-116 [14] = assay: Induction of apoptosis in human HCT-116 cells assessed as downregulation of PRIM1 mRNA expression at 10 to 500 nM incubated for 6 to 48 hrs by RNA analysis; type: functional, cell-based; settings: dose 10-500 nM, time 6-48 hrs
HCT-116 [15] = assay: Induction of apoptosis in human HCT-116 cells assessed as downregulation of RFC3 mRNA expression at 10 to 500 nM incubated for 6 to 48 hrs by RNA analysis; type: functional, cell-based; settings: dose 10-500 nM, time 6-48 hrs
HCT-116 [16] = assay: Induction of apoptosis in human HCT-116 cells assessed as upregulation of POLR2A mRNA expression at 10 to 500 nM incubated for 6 to 48 hrs by RNA analysis; type: functional, cell-based; settings: dose 10-500 nM, time 6-48 hrs
HCT-116 [17] = assay: Induction of apoptosis in human HCT-116 cells assessed as upregulation of XPC mRNA expression at 10 to 500 nM incubated for 6 to 48 hrs by RNA analysis; type: functional, cell-based; settings: dose 10-500 nM, time 6-48 hrs
HCT-116 [18] = assay: Activation of innate immune response in human HCT-116 cells assessed as upregulation of IL-12B gene expression at 10 to 500 nM incubated for 6 to 48 hrs by RNA analysis; type: functional, cell-based; settings: dose 10-500 nM, time 6-48 hrs
HCT-116 [19] = assay: Induction of apoptosis in human HCT-116 cells assessed as downregulation of PPP2CA gene expression at 10 to 500 nM incubated for 6 to 48 hrs by RNA analysis; type: functional, cell-based; settings: dose 10-500 nM, time 6-48 hrs
HCT-116 [20] = assay: Induction of apoptosis in human HCT-116 cells assessed as downregulation of NUP133 gene expression at 10 to 500 nM incubated for 6 to 48 hrs by RNA analysis; type: functional, cell-based; settings: dose 10-500 nM, time 6-48 hrs
HCT-116 [21] = assay: Induction of apoptosis in human HCT-116 cells assessed as downregulation of NUP160 gene expression at 10 to 500 nM incubated for 6 to 48 hrs by RNA analysis; type: functional, cell-based; settings: dose 10-500 nM, time 6-48 hrs
HCT-116 [22] = assay: Induction of apoptosis in human HCT-116 cells assessed as downregulation of NUP205 gene expression at 10 to 500 nM incubated for 6 to 48 hrs by RNA analysis; type: functional, cell-based; settings: dose 10-500 nM, time 6-48 hrs
HCT-116 [23] = assay: Induction of apoptosis in human HCT-116 cells assessed as downregulation of SLC25A13 gene expression at 10 to 500 nM incubated for 6 to 48 hrs by RNA analysis; type: functional, cell-based; settings: dose 10-500 nM, time 6-48 hrs
HCT-116 [24] = assay: Induction of apoptosis in human HCT-116 cells assessed as downregulation of NME4 gene expression at 10 to 500 nM incubated for 6 to 48 hrs by RNA analysis; type: functional, cell-based; settings: dose 10-500 nM, time 6-48 hrs
HCT-116 [25] = assay: Induction of apoptosis in human HCT-116 cells assessed as downregulation of PPAT gene expression at 10 to 500 nM incubated for 6 to 48 hrs by RNA analysis; type: functional, cell-based; settings: dose 10-500 nM, time 6-48 hrs
HCT-116 [26] = assay: Induction of apoptosis in human HCT-116 cells assessed as downregulation of CTPS2 gene expression at 10 to 500 nM incubated for 6 to 48 hrs by RNA analysis; type: functional, cell-based; settings: dose 10-500 nM, time 6-48 hrs
HCT-116 [27] = assay: Induction of apoptosis in human HCT-116 cells assessed as downregulation of GART gene expression at 10 to 500 nM incubated for 6 to 48 hrs by RNA analysis; type: functional, cell-based; settings: dose 10-500 nM, time 6-48 hrs
HCT-116 [28] = assay: Induction of apoptosis in human HCT-116 cells assessed as downregulation of UMPS gene expression at 10 to 500 nM incubated for 6 to 48 hrs by RNA analysis; type: functional, cell-based; settings: dose 10-500 nM, time 6-48 hrs
HCT-116 [29] = assay: Induction of apoptosis in human HCT-116 cells assessed as downregulation of LIPE gene expression at 10 to 500 nM incubated for 6 to 48 hrs by RNA analysis; type: functional, cell-based; settings: dose 10-500 nM, time 6-48 hrs
HCT-116 [30] = assay: Induction of apoptosis in human HCT-116 cells assessed as upregulation of ADCY6 mRNA expression at 10 to 500 nM incubated for 6 to 48 hrs by RNA analysis; type: functional, cell-based; settings: dose 10-500 nM, time 6-48 hrs
HCT-116 [31] = assay: Induction of apoptosis in human HCT-116 cells assessed as downregulation of HPRT1 gene expression at 10 to 500 nM incubated for 6 to 48 hrs by RNA analysis; type: functional, cell-based; settings: dose 10-500 nM, time 6-48 hrs

SMILES	Activity (HCT-116 [1])	IC50 (A549) [nM]	IC50 (HeLa) [nM]	Activity (HCT-116 [2]) [mm]	Activity (HCT-116 [3]) [mm]	Activity (PDX14244)	Activity (HCT-116 [4])	Activity (HCT-116 [5])	Activity (HCT-116 [6])	Activity (HCT-116 [7])	Activity (HCT-116 [8])	Activity (HCT-116 [9])	Activity (HCT-116 [10])	Activity (HCT-116 [11])	Activity (HCT-116 [12])	Activity (HCT-116 [13])	Activity (HCT-116 [14])	Activity (HCT-116 [15])	Activity (HCT-116 [16])	Activity (HCT-116 [17])	further results
CC[C@@]1(O)C(=O)OCc2c1cc1n(c2=O)Cc2c-1nc1cc3c(cc1c2-c1cc(OC)cc(OC)c1)OCO3	Dose-Dependent Effect	28.5	< 6.4	2.7	1.5	Active	inactive	Active	Active	Active	Active	Active	Active	Active	Active	Active	Active	Active	Active	Active	Activity (HCT-116 [18]): Active; Activity (HCT-116 [19]): Active; Activity (HCT-116 [20]): Active; Activity (HCT-116 [21]): Active; Activity (HCT-116 [22]): Active; Activity (HCT-116 [23]): Active; Activity (HCT-116 [24]): Active; Activity (HCT-116 [25]): Active; Activity (HCT-116 [26]): Active; Activity (HCT-116 [27]): Active; Activity (HCT-116 [28]): Active; Activity (HCT-116 [29]): Active
CC[C@@]1(O)C(=O)OCc2c1cc1n(c2=O)Cc2c-1nc1cc3c(cc1c2-c1ccc(OC)cc1)OCO3	Dose-Dependent Effect	43.3	48.3	2.8	1.3	Active	inactive	Active	Active	Active	Active	Active	Active	Active	Active	Active	Active	Active	Active	Active	Activity (HCT-116 [30]): Active; Activity (HCT-116 [18]): Active; Activity (HCT-116 [19]): Active; Activity (HCT-116 [20]): Active; Activity (HCT-116 [21]): Active; Activity (HCT-116 [22]): Active; Activity (HCT-116 [23]): Active; Activity (HCT-116 [24]): Active; Activity (HCT-116 [25]): Active; Activity (HCT-116 [26]): Active; Activity (HCT-116 [27]): Active; Activity (HCT-116 [31]): Active; Activity (HCT-116 [28]): Active; Activity (HCT-116 [29]): Active
